Laboratory results taken from patent publication US12679836B2, “4H-pyrrolo[3,2-c]pyridin-4-one compounds” (Bayer Aktiengesellschaft, priority 2019, dated 2026).
pIC50: −log10 of the molar value. Like-named read-outs stand apart in the source and are kept apart here.

Experiments:
[1] = target: T1, EGFR with insertion of SVD between D770 and N771 (EGFR ins SVD) (Homo sapiens, UniProt P00533, DUP768-770); assay: Exon20-Mutant-EGFR(D770_N771insSVD) kinase assay (TR-FRET); type: biochemical; conditions: 2 mM ATP, several values per example where printed
T1 construct: made in house; host or cells: Sf9 insect cells (baculovirus)
T1 sequence (P00533 with tags, fused parts or gaps DUP768-770): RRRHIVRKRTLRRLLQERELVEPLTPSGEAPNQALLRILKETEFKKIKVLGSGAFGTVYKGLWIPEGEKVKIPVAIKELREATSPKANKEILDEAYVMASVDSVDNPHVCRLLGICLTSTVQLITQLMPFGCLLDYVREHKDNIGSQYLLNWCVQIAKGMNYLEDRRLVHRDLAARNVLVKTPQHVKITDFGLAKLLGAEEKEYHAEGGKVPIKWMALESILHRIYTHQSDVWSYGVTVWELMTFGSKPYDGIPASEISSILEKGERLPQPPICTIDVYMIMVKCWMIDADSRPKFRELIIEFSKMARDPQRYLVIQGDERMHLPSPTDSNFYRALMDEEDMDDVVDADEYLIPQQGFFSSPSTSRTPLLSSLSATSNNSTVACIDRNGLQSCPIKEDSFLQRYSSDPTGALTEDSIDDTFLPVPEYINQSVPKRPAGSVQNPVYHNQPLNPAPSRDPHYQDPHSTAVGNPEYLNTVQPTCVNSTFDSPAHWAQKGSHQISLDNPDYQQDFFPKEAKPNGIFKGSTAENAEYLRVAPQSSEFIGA

Bub1 = target: T2, Bub1 (Homo sapiens, UniProt O43683); assay: Bub1 TR-FRET high ATP kinase assay; type: biochemical; conditions: 2 mM ATP
T2 construct: catalytic domain of human Bub1 (amino acids 704-1085); His6 (N); made in house; host or cells: Hi5 insect cells
T2 sequence (O43683 704-1085): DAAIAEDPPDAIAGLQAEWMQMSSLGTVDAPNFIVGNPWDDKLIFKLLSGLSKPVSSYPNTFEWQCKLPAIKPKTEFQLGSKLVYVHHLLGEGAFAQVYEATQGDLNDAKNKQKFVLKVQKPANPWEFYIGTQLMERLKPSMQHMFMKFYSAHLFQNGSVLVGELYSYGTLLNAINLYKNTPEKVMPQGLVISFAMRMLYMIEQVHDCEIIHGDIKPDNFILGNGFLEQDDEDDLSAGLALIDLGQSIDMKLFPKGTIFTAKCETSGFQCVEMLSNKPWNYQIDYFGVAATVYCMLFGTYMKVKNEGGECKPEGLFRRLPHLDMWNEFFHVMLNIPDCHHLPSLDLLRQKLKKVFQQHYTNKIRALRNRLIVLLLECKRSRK
In short: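 Recombinant His6-tagged human Bub1 catalytic domain (aa 704-1085), from Hi5 insect cells, phosphorylating a biotinylated peptide substrate at high ATP concentration. TR-FRET read-out.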

Ba/F3-EGFR-insSVD cells = Ba/F3-EGFR-insSVD cells (Homo sapiens, UniProt P00533, DUP768-770, cells depend on it); assay: Ba/F3 cell survival assay (Cell Titer-Glo), EGFR-insSVD; type: cell-based; conditions: without IL-3, with 10 ng/mL EGF, 48 h; read-out: BA/F3 (insSVD) IC50
Chain of Ba/F3-EGFR-insSVD cells (P00533 with tags, fused parts or gaps DUP768-770): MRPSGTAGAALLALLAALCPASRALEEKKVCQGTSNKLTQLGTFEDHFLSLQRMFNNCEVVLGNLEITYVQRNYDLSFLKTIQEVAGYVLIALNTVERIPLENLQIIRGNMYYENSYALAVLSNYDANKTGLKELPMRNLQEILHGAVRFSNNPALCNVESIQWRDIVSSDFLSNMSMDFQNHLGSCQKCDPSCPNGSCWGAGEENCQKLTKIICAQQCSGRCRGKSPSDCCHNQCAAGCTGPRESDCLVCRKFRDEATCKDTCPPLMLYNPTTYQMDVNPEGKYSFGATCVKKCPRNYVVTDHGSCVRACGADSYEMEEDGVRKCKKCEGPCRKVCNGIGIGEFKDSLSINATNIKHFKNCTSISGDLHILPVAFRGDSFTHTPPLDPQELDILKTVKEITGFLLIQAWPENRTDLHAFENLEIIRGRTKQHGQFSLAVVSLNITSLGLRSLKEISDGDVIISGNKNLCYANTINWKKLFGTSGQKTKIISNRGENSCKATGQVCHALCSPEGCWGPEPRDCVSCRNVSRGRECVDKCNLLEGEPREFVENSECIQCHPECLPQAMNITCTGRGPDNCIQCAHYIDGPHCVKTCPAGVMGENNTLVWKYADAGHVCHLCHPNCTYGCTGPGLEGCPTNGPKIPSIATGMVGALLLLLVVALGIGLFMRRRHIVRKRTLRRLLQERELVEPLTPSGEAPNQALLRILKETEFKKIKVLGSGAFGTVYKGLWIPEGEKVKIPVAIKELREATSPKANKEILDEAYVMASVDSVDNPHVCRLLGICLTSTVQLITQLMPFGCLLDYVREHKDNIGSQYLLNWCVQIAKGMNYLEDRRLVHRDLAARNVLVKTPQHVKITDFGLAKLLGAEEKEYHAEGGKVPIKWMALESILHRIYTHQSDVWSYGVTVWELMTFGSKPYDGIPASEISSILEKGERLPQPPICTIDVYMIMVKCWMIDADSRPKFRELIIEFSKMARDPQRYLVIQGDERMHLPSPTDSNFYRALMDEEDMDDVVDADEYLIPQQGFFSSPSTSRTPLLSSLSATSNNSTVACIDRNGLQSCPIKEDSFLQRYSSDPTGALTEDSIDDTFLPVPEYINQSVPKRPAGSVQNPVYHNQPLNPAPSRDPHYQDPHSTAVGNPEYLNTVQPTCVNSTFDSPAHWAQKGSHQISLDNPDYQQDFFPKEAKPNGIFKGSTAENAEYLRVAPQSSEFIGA
In short: (§1)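 Ba/F3 cells stably expressing WT EGFR or EGFR-insSVD from retroviral transduction were grown without IL-3 on 10 ng/mL EGF. Cells were plated at 4000 cells/well, treated with compound for 48 h at 37° C, and viability was read by CellTiter-Glo luminescence.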

Ba/F3-EGFR-WT cells = Ba/F3-EGFR-WT cells (Homo sapiens, UniProt P00533); assay: Ba/F3 cell survival assay (Cell Titer-Glo), WT EGFR; type: cell-based; conditions: without IL-3, with 10 ng/mL EGF, 48 h; read-out: BA/F3 (wild type) IC50
Chain of Ba/F3-EGFR-WT cells (P00533 whole entry, change not shown): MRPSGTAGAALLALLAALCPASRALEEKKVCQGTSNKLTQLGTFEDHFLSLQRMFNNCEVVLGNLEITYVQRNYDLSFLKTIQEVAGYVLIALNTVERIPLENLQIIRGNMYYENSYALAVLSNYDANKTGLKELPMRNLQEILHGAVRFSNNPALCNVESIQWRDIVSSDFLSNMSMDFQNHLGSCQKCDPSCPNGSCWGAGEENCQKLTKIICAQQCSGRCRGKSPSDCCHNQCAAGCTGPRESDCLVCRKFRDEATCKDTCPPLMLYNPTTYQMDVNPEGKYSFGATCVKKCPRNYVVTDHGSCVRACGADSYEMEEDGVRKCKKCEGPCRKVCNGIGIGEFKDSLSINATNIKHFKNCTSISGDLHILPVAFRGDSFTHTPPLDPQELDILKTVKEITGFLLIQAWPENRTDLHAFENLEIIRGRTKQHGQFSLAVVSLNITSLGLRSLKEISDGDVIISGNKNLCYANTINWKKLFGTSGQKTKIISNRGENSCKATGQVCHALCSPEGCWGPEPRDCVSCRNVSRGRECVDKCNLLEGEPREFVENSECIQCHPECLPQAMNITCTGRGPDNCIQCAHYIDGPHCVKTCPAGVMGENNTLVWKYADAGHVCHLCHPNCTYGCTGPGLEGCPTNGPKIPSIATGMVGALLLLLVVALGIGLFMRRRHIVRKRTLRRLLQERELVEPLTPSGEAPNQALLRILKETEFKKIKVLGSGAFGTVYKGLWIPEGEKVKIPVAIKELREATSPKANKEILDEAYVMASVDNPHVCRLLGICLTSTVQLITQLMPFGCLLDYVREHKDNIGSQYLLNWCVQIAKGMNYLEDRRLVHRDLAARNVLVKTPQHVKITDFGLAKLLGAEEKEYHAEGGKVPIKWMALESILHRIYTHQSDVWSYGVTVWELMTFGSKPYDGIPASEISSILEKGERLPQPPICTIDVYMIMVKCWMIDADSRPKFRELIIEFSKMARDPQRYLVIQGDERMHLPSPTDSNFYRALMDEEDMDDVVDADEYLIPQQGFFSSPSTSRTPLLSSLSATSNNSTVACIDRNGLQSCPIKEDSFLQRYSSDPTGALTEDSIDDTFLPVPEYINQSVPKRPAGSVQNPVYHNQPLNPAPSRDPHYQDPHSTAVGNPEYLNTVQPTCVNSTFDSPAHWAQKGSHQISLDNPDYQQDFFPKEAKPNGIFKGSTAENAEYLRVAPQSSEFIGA
In short: as §1

[2] = Bub1 high ATP (2 mM) IC50 [mol/l]

SMILES	mutEGFR (D770_N771insSVD) kinase assay IC50 [1] [nM]	pIC50 (Bub1; [2])	GI50 (Ba/F3-EGFR-insSVD cells) [nM]	GI50 (Ba/F3-EGFR-WT cells) [nM]	pIC50 (Bub1; read-out: Bub1 high ATP (2 mM) IC50 [mol/l])
CCc1c(Cl)cccc1Nc1c(-c2ccncc2OC[C@@H]2COCCO2)[nH]c2c1C(=O)NCC2 (single isomer, unassigned) [Example 53]	0.426	5.87	21.3	408	–
COc1c(Cl)cc(F)cc1Nc1c(-c2ccncc2OCC2CN(C)CCO2)[nH]c2c1C(=O)NCC2 (stereo not drawn) [Example 18, 3-(3-chloro-5-fluoro-2-methoxyanilino)-2-(3-{[4-methylmorpholin-2-yl]methoxy}pyridin-4-yl)-1,5,6,7-tetrahydro-4H-pyrrolo[3,2-c]pyridin-4-one]	0.147	< 4.70	27.9	579	–
COc1c(F)cccc1Nc1c(-c2ccncc2OCC2COC(C)(C)CO2)[nH]c2c1C(=O)NCC2 (single isomer, unassigned) [Example 33, 2-(3-{[5,5-dimethyl-1,4-dioxan-2-yl]methoxy}pyridin-4-yl)-3-(3-fluoro-2-methoxyanilino)-1,5,6,7-tetrahydro-4H-pyrrolo[3,2-c]pyridin-4-one]	0.213	< 4.70	102	557	–
O=C1NCCc2[nH]c(-c3ccncc3OCC3COCCO3)c(Nc3cccc(F)c3CC(F)F)c21 (stereo not drawn) [Example 40, 3-[2-(2,2-difluoroethyl)-3-fluoro-anilino]-2-[3-(1,4-dioxan-2-ylmethoxy)-4-pyridyl]-1,5,6,7-tetrahydropyrrolo[3,2-c]pyridin-4-one]	0.115	5.06	119	867	–
CCc1c(Cl)cccc1Nc1c(-c2ccncc2OC[C@H]2COCCO2)[nH]c2c1C(=O)NCC2 (single isomer, unassigned) [Example 54]	0.571	6.00	80.9	917	–
COc1c(F)cccc1Nc1c(-c2ccncc2OC[C@@H]2CN(CC(F)(F)F)CCO2)[nH]c2c1C(=O)NCC2 [Example 23, 3-(3-fluoro-2-methoxyanilino)-2-(3-{[(2S)-4-(2,2,2-trifluoroethyl)morpholin-2-yl]methoxy}pyridin-4-yl)-1,5,6,7-tetrahydro-4H-pyrrolo[3,2-c]pyridin-4-one]	0.169	< 4.70	71	648	–
COc1c(F)cccc1Nc1c(-c2ccncc2OCC2COCCO2)[nH]c2c1C(=O)NCC2 (stereo not drawn) [Example 4, 2-{3-[(1,4-dioxan-2-yl)methoxy]pyridin-4-yl}-3-(3-fluoro-2-methoxyanilino)-1,5,6,7-tetrahydro-4H-pyrrolo[3,2-c]pyridin-4-one]	0.256	4.95	19.5	452	–
CCc1c(F)cccc1Nc1c(-c2ccncc2OCC2COCCO2)[nH]c2c1C(=O)NCC2 (single isomer, unassigned) [Example 66, 2-(3-{[1,4-dioxan-2-yl]methoxy}pyridin-4-yl)-3-(2-ethyl-3-fluoroanilino)-1,5,6,7-tetrahydro-4H-pyrrolo[3,2-c]pyridin-4-one]	0.182	5.30	7.52	252	–
COc1c(Cl)cccc1Nc1c(-c2ccncc2OCC2CN(C)CCO2)[nH]c2c1C(=O)NCC2 (stereo not drawn) [Example 15, 3-(3-chloro-2-methoxyanilino)-2-{3-[(4-methylmorpholin-2-yl)methoxy]pyridin-4-yl}-1,5,6,7-tetrahydro-4H-pyrrolo[3,2-c]pyridin-4-one]	0.151	< 4.70	15.3	426	–
Cc1c(Cl)cccc1Nc1c(-c2ccncc2OCC2COCCO2)[nH]c2c1C(=O)NCC2 (stereo not drawn) [Example 10, 3-(3-chloro-2-methylanilino)-2-{3-[(1,4-dioxan-2-yl)methoxy]pyridin-4-yl}-1,5,6,7-tetrahydro-4H-pyrrolo[3,2-c]pyridin-4-one]	0.669	5.75	11.1	496	–
COc1c(Cl)cccc1Nc1c(-c2ccncc2OC(C)C2CN(C)CCO2)[nH]c2c1C(=O)NCC2 (single isomer, unassigned) [Example 73, 3-(3-chloro-2-methoxyanilino)-2-[3-({1-[4-methylmorpholin-2-yl]ethyl}oxy)pyridin-4-yl]-1,5,6,7-tetrahydro-4H-pyrrolo[3,2-c]pyridin-4-one]	1.12	–	78	1280	< 4.70
COc1c(Cl)cccc1Nc1c(-c2ccncc2O[C@@H](C)C2COCCO2)[nH]c2c1C(=O)NCC2 (mixture of isomers) [Example 57, 3-(3-chloro-2-methoxyanilino)-2-{3-[(1S)-1-(1,4-dioxan-2-yl)ethoxy]pyridin-4-yl}-1,5,6,7-tetrahydro-4H-pyrrolo[3,2-c]pyridin-4-one]	0.269	4.85	28	539	–
CCc1c(F)cccc1Nc1c(-c2ccncc2OCC2COCCO2)[nH]c2c1C(=O)NCC2 (stereo not drawn) [Example 65, 2-(3-{[1,4-dioxan-2-yl]methoxy}pyridin-4-yl)-3-(2-ethyl-3-fluoroanilino)-1,5,6,7-tetrahydro-4H-pyrrolo[3,2-c]pyridin-4-one]	0.136	5.45	13.4	287	–
COc1c(Cl)cccc1Nc1c(-c2ccncc2OC(C)C2CN(C)CCO2)[nH]c2c1C(=O)NCC2 (single isomer, unassigned) [Example 72, 3-(3-chloro-2-methoxyanilino)-2-[3-({1-[4-methylmorpholin-2-yl]ethyl}oxy)pyridin-4-yl]-1,5,6,7-tetrahydro-4H-pyrrolo[3,2-c]pyridin-4-one]	1.41	< 4.70	67.3	957	–
O=C1NCCc2[nH]c(-c3ccncc3OCC3COCCO3)c(Nc3cccc(Cl)c3Cl)c21 (single isomer, unassigned) [Example 9, 3-(2,3-Dichloroanilino)-2-{3-[(1,4-dioxan-2-yl)methoxy]pyridin-4-yl}-1,5,6,7-tetrahydro-4H-pyrrolo[3,2-c]pyridin-4-one]	0.0891	5.37	32.7	303	–
COc1c(Cl)cc(F)cc1Nc1c(-c2ccncc2OCC2COCCO2)[nH]c2c1C(=O)NCC2 (stereo not drawn) [Example 19, 3-(3-chloro-5-fluoro-2-methoxyanilino)-2-(3-{[1,4-dioxan-2-yl]methoxy}pyridin-4-yl)-1,5,6,7-tetrahydro-4H-pyrrolo[3,2-c]pyridin-4-one]	0.113	4.94	29.1	532	–
Cc1c(F)cccc1Nc1c(-c2ccncc2OCC2COC(C)(C)CO2)[nH]c2c1C(=O)NCC2 (stereo not drawn) [Example 38, 2-[3-[(5,5-dimethyl-1,4-dioxan-2-yl)methoxy]-4-pyridyl]-3-(3-fluoro-2-methyl-anilino)-1,5,6,7-tetrahydropyrrolo[3,2-c]pyridin-4-one]	0.119	< 5.24	29.3	419	–
Cc1c(F)cccc1Nc1c(-c2ccncc2OCC2COC(C)(C)CO2)[nH]c2c1C(=O)NCC2 (single isomer, unassigned) [Example 39, 2-[3-[(5,5-dimethyl-1,4-dioxan-2-yl)methoxy]-4-pyridyl]-3-(3-fluoro-2-methyl-anilino)-1,5,6,7-tetrahydropyrrolo[3,2-c]pyridin-4-one]	0.304	< 4.70	44	630	–
